Test results from PubChem BioAssay AID1963974 (Molecular Pharmacology Branch, DTP, NCI, 2024).

Test system: 648629-189-R-J1-PDC spheroids with HUVEC/MSC, viability
Experiment: Anticancer human tumor 648629-189-R-J1-PDC patient-derived bladder carcinoma cell line growth inhibition [PI3K]
Settings: for viability, T/C: stronger effect = lower value; active means viability on the fitted dose curve at most 10% of control; inactive means the rest
Summary of the method: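 Targeted small molecules plus PI3K inhibitors, half-log dose series from Cmax (default top 10 microM), were applied to heterotypic spheroids of cancer cells with HUVEC and MSCs. Viability indicated growth inhibition.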

[1] = curve of first compound, second compound 0.0316 µM
[2] = curve of first compound, second compound 0.1 µM
[3] = curve of first compound, second compound 0.316 µM
[4] = curve of first compound, second compound 1 µM
[5] = curve of first compound, second compound 3.16 µM
[6] = curve of first compound, second compound 10 µM
[7] = second compound 0.0316 µM, first compound 0.00316 µM
[8] = second compound 0.0316 µM, first compound 0.01 µM
[9] = second compound 0.0316 µM, first compound 0.0316 µM
[10] = second compound 0.0316 µM, first compound 0.1 µM
[11] = second compound 0.0316 µM, first compound 0.316 µM
[12] = second compound 0.0316 µM, first compound 1 µM
[13] = second compound 0.1 µM, first compound 0.00316 µM
[14] = second compound 0.1 µM, first compound 0.01 µM
[15] = second compound 0.1 µM, first compound 0.0316 µM
[16] = second compound 0.1 µM, first compound 0.1 µM
[17] = second compound 0.1 µM, first compound 0.316 µM
[18] = second compound 0.1 µM, first compound 1 µM
[19] = second compound 0.316 µM, first compound 0.00316 µM
[20] = second compound 0.316 µM, first compound 0.01 µM
[21] = second compound 0.316 µM, first compound 0.0316 µM
[22] = second compound 0.316 µM, first compound 0.1 µM
[23] = second compound 0.316 µM, first compound 0.316 µM
[24] = second compound 0.316 µM, first compound 1 µM
[25] = second compound 1 µM, first compound 0.00316 µM
[26] = second compound 1 µM, first compound 0.01 µM
[27] = second compound 1 µM, first compound 0.0316 µM
[28] = second compound 1 µM, first compound 0.1 µM
[29] = second compound 1 µM, first compound 0.316 µM
[30] = second compound 1 µM, first compound 1 µM
[31] = second compound 3.16 µM, first compound 0.00316 µM
[32] = second compound 3.16 µM, first compound 0.01 µM
[33] = second compound 3.16 µM, first compound 0.0316 µM
[34] = second compound 3.16 µM, first compound 0.1 µM
[35] = second compound 3.16 µM, first compound 0.316 µM
[36] = second compound 3.16 µM, first compound 1 µM
[37] = second compound 10 µM, first compound 0.00316 µM
[38] = second compound 10 µM, first compound 0.01 µM
[39] = second compound 10 µM, first compound 0.0316 µM
[40] = second compound 10 µM, first compound 0.1 µM
[41] = second compound 10 µM, first compound 0.316 µM
[42] = second compound 10 µM, first compound 1 µM
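Further: spheroids exposed to agents for seven days before reading.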
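Wherever viability, T/C is given: percent of vehicle control luminescence where 100% = DMSO treated spheroids.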

CCN1CCN(Cc2ccc(Nc3ncc(F)c(-c4cc(F)c5nc(C)n(C(C)C)c5c4)n3)nc2)CC1 + Cc1nc(NC(=O)N2CCCC2C(N)=O)sc1-c1ccnc(C(C)(C)C(F)(F)F)c1
inactive: viability, T/C [7] 96.4% | viability, T/C [8] 107% | viability, T/C [9] 104% | viability, T/C [10] 99.2% | viability, T/C [11] 119% | viability, T/C [12] 120% | viability, T/C [13] 101% | viability, T/C [14] 103% | viability, T/C [15] 101% | viability, T/C [16] 114% | viability, T/C [17] 100% | viability, T/C [18] 109% | viability, T/C [19] 88.8% | viability, T/C [20] 93.7% | viability, T/C [21] 90% | viability, T/C [22] 91.6% | viability, T/C [23] 96.9% | viability, T/C [24] 101% | viability, T/C [25] 78.2% | viability, T/C [26] 75.5% | viability, T/C [27] 73% | viability, T/C [28] 80.4% | viability, T/C [29] 83.6% | viability, T/C [30] 83.1% | viability, T/C [31] 49.9% | viability, T/C [32] 57.7% | viability, T/C [33] 53.8% | viability, T/C [34] 59.3% | viability, T/C [35] 64.7% | viability, T/C [36] 69.8% | viability, T/C [37] 41.9% | viability, T/C [38] 38.8% | viability, T/C [39] 40.7% | viability, T/C [40] 41.5% | viability, T/C [41] 43.5% | viability, T/C [42] 41.6%
> 1000 nM: IC50 [1] | IC50 [2] | IC50 [3] | IC50 [4] | IC50 [5]
< 3.16 nM: IC50 [6]

CCN1CCN(Cc2ccc(Nc3ncc(F)c(-c4cc(F)c5nc(C)n(C(C)C)c5c4)n3)nc2)CC1 + CC(Nc1ncnc2nc[nH]c12)c1cc2cccc(Cl)c2c(=O)n1-c1ccccc1
> 1000 nM: IC50 [1] | IC50 [2] | IC50 [3] | IC50 [4] | IC50 [5] | IC50 [6]
inactive: viability, T/C [7] 90.1% | viability, T/C [8] 96.2% | viability, T/C [9] 105% | viability, T/C [10] 111% | viability, T/C [11] 113% | viability, T/C [12] 122% | viability, T/C [13] 107% | viability, T/C [14] 99.4% | viability, T/C [15] 103% | viability, T/C [16] 101% | viability, T/C [17] 101% | viability, T/C [18] 135% | viability, T/C [19] 105% | viability, T/C [20] 96.3% | viability, T/C [21] 98% | viability, T/C [22] 108% | viability, T/C [23] 113% | viability, T/C [24] 109% | viability, T/C [25] 106% | viability, T/C [26] 92.5% | viability, T/C [27] 100% | viability, T/C [28] 90.3% | viability, T/C [29] 103% | viability, T/C [30] 96.4% | viability, T/C [31] 85.8% | viability, T/C [32] 106% | viability, T/C [33] 86.8% | viability, T/C [34] 88.2% | viability, T/C [35] 111% | viability, T/C [36] 105% | viability, T/C [37] 85.6% | viability, T/C [38] 80.7% | viability, T/C [39] 84.4% | viability, T/C [40] 88% | viability, T/C [41] 87% | viability, T/C [42] 75.5%

CC(C)NCC(C(=O)N1CCN(c2ncnc3c2C(C)CC3O)CC1)c1ccc(Cl)cc1 (configuration not stated) + Cc1nc(NC(=O)N2CCCC2C(N)=O)sc1-c1ccnc(C(C)(C)C(F)(F)F)c1
784 nM: IC50 [2]
719 nM: IC50 [1]
648 nM: IC50 [3]
506 nM: IC50 [4]
154 nM: IC50 [5]
< 31.6 nM: IC50 [6]
active: viability, T/C (second compound 10 µM, first compound 10 µM) 5.54%
inactive: viability, T/C [9] 105% | viability, T/C [10] 82.2% | viability, T/C [11] 73.8% | viability, T/C [12] 40.5% | viability, T/C (second compound 0.0316 µM, first compound 3.16 µM) 23.2% | viability, T/C (second compound 0.0316 µM, first compound 10 µM) 15.7% | viability, T/C [15] 102% | viability, T/C [16] 91% | viability, T/C [17] 75.2% | viability, T/C [18] 42.2% | viability, T/C (second compound 0.1 µM, first compound 3.16 µM) 23.1% | viability, T/C (second compound 0.1 µM, first compound 10 µM) 12.8% | viability, T/C [21] 84.1% | viability, T/C [22] 80.6% | viability, T/C [23] 70.6% | viability, T/C [24] 36.7% | viability, T/C (second compound 0.316 µM, first compound 3.16 µM) 22% | viability, T/C (second compound 0.316 µM, first compound 10 µM) 12.5% | viability, T/C [27] 69.6% | viability, T/C [28] 88.4% | viability, T/C [29] 57.1% | viability, T/C [30] 34.2% | viability, T/C (second compound 1 µM, first compound 3.16 µM) 21.5% | viability, T/C (second compound 1 µM, first compound 10 µM) 12.4% | viability, T/C [33] 61.1% | viability, T/C [34] 53.6% | viability, T/C [35] 43.8% | viability, T/C [36] 32.8% | viability, T/C (second compound 3.16 µM, first compound 3.16 µM) 20.8% | viability, T/C (second compound 3.16 µM, first compound 10 µM) 10.1% | viability, T/C [39] 38% | viability, T/C [40] 34.6% | viability, T/C [41] 28.7% | viability, T/C [42] 20.1% | viability, T/C (second compound 10 µM, first compound 3.16 µM) 13.2%

CC(Nc1ccc2c(c1)OCCn1cc(N3C(=O)OCC3C(F)F)nc1-2)C(N)=O (configuration not stated)
> 1000 nM: IC50 (compound alone, run of 04/24/2023)
inactive: viability, T/C (compound 0.00316 µM) 104% [middle of 8 runs] | viability, T/C (compound 0.01 µM) 99.7% [middle of 8 runs] | viability, T/C (compound 0.0316 µM) 106% [middle of 8 runs] | viability, T/C (compound 0.1 µM) 95.2% [middle of 8 runs] | viability, T/C (compound 0.316 µM) 81.1% [middle of 8 runs] | viability, T/C (compound 1 µM) 73.8% [middle of 8 runs]

COc1c(OCCCN2CCOCC2)ccc2c3n(c(=NC(=O)c4cnc(N)nc4)nc12)CCN3
active: viability, T/C (compound 1 µM) 3.42% [middle of 8 runs]
144 nM [middle of 7 runs]: IC50 (compound alone, run of 04/25/2023)
inactive: viability, T/C (compound 0.00316 µM) 108% [middle of 8 runs] | viability, T/C (compound 0.01 µM) 103% [middle of 8 runs] | viability, T/C (compound 0.0316 µM) 97.5% [middle of 8 runs] | viability, T/C (compound 0.1 µM) 64.5% [middle of 8 runs] | viability, T/C (compound 0.316 µM) 18.6% [middle of 8 runs]

CC(=O)c1c(C)c2cnc(Nc3ccc(N4CCNCC4)cn3)nc2n(C2CCCC2)c1=O
inactive: viability, T/C (compound 0.000316 µM) 101% [middle of 4 runs] | viability, T/C (compound 0.001 µM) 102% [middle of 4 runs] | viability, T/C (compound 0.00316 µM) 115% [middle of 4 runs] | viability, T/C (compound 0.01 µM) 97.2% [middle of 4 runs] | viability, T/C (compound 0.0316 µM) 100% [middle of 4 runs] | viability, T/C (compound 0.1 µM) 111% [middle of 4 runs]
> 100 nM: IC50 (curve of compound)
